The source of these data is US11696904B2, “Prodrug for therapeutic applications” (The Regents of the University of California, priority 2020, dated 2023).

One data set deals with C57BL/6 mice. Briefly: Heart rate (ECG telemetry). The data set is classed as in vivo. The following applies: single i.p. dose 10 mg/kg, monitored 10 h, conscious mice. The source says: Heart rate. Male C57BL/6 mice age 4-6 months were surgically implanted with DSI TA-ETAF20 electrocardiographic telemetry devices (Data Sciences International, St. Paul, Minn.) in the mouse's abdominal cavity with biopotential leads sutured in place in the chest wall. The electrocardiographic data was collected and recorded using the PhysioTel telemetry system and Dataquest A.R.T 4.0 software (Data Sciences International). Mice were permitted two week-long recovery after surgery before initiation of baseline telemetry recordings. Heart rate was calculated from ECG data taken in the freely moving, conscious mice. Mice (n=3) were intraperitoneally treated with a single dose of vehicle (0.9% saline or 20% acidified DMSO in 0.9% saline), 10 mg/kg fingolimod, or 155 mg/kg FTY-k-PEG, and heart rate was continuously monitored for 10 h. Mice were rested for two weeks at which point the experiment was repeated with the mice assigned to the alternate group. […]
Avoided bradycardia and lymphopenia in vivo by FTY-k-PEG. To test whether FTY-k-PEG avoids bradycardia, C57BL/6 mice were surgically implanted with an electrocardiographic telemetry device and heart rate was calculated from ECG data taken in the freely moving, conscious mice after intraperitoneal (i.p.) injection of saline, fingolimod, or acid-cleavable FTY-k-PEG (see FIG. 10A). […]

The subject of data set [1] is circulating B and T lymphocytes. Kind of data set: Lymphocyte sequestration. The data set is classed as in vivo, mice. The following applies: 10 mg/kg (32 μmol/kg) i.p., blood 12 h post-injection, compared to saline or FTY-k-PEG. How it is done: Lymphocyte sequestration. Female 8-24 week old C57BL6 mice were intraperitoneally injected with vehicle (0.9% saline or 20% acidified DMSO in 0.9% saline), 10 mg/kg (32 μmol/kg) fingolimod, or 155 mg/kg FTY-k-PEG (32 μmol/kg). After 12 h, blood was collected from the retro-orbital sinus under ketamine/xylazine anesthesia. Whole blood (10 μL) was added to 190 μL of ACK red blood cell lysis buffer, the mixture was incubated at ambient temperature for 3-5 min […], and the white blood cells were recovered by centrifugation. Nucleated cells (Hoechst33342-positive) were counted using a hemocytometer to obtain the white blood cell count. Separately, 50 μL of whole blood was added to 1 mL of ACK red blood cell lysis buffer and incubated for 3-5 min at RT. Cells were washed with 2% fetal calf serum (FCS, Atlanta Biologicals (Flowery Branch, Ga.) in PBS with 0.05% NaN3 (Sigma Aldrich (Milwaukee, Wis.)) and red blood cell lysis was repeated. Tubes were decanted and resuspended in 100 μL of 10% FCS in PBS with 0.05% NaN3 and directly conjugated antibodies against B220, CD4, or CD8 (all from Biolegend, San Diego, Calif.) for 30 min on ice. Cells were analyzed on a BD LSR II flow cytometer; the analysis was restricted to live cells (DAPI-negative).
Avoided bradycardia and lymphopenia in vivo by FTY-k-PEG. […]

Data set [2] is described as follows: DNAge (epigenetic aging clock) analysis. The data set is classed as in vivo. The following applies: healthy BALB/c mice, 32 μmol/kg daily i.p., blood two days post-treatment. The method, then: DNAge® (epigenetic aging clock) analysis. Blood samples (100 μL) were collected in triplicate from healthy female BALB/c mice treated as described above. Upon immediate preservation in DNA/RNA Shield™ (Zymo Research, Irvine, Calif.), genomic DNA was purified using Quick-DNA Plus Kit (Zymo Research) as instructed by the manufacturer. Sample library preparation and data analysis for mouse DNAge® (epigenetics aging clock) were performed by service provider (Zymo Research). Briefly, genomic DNA (200 ng) was bisulfite-converted using EZ DNA Methylation_Lightning™ Kit (Zymo Research). Bisulfite-converted DNA libraries for targeted bisulfite sequencing platform, called SWARM® (Simplified Whole-panel Amplification Reaction Method), were sequenced on a HiSeq 1500 sequencer for >1,000× coverage. Sequence reads were identified using Illumina base calling software (San Diego, Calif.) and aligned to the reference genome using Bismark, an aligner optimized for bisulfite sequence data and methylation calling. The methylation level of each sampled cytosine was estimated as the number of reads reporting a C, divided by the total number of reads reporting a C or T. DNA methylation levels of >500 age-related CpG loci were used for age prediction using Zymo Research's proprietary […] DNAge® algorithms: […]

Another data set relates to FL5.12/p190-Luc cells. Briefly: In vivo bioluminescence imaging, BCR-Abl-driven leukemogenesis model. The following applies: 32 μmol/kg daily i.p., day 6, Balb/c mice, p<0.01. The method, then:
In vivo bioluminescence imaging. In an immunocompetent syngeneic model, 6-7 weeks old Balb/c female mice were intravenously injected with Ph+FL5.12/p190/Luc cells (1.0×10^5 cells per mouse) in the tail vein. After 5 days, the mice received daily i.p. injections of fingolimod, FTY-k-PEG, FTY-PEG (all at a dose of 32 μmol/kg) or PBS for 5 days (n=5). Mice were placed under anesthesia using isoflurane (Patterson Veterinary, Greeley, Colo.) and interperitoneally injected with 120 mg/kg of synthetic firefly luciferin (Promega, Madison, Wis.) in PBS at a concentration of 20 mg/mL immediately prior to bioluminescence imaging with an IVIS Lumina system (Caliper Life Sciences, Hopkinton, Mass.) for 4 min. Mice were under anesthesia for the entire duration of imaging and bioluminescence signal intensities in mice were quantified using Living Image 3.2 software associated with the imaging system.
Preserved anti-leukemic effect of FTY-k-PEG in vivo. To assess the anti-leukemic effects of FTY-k-PEG in vivo while eliminating bradycardia and immunosuppressive activity, a BCR-Abl-driven leukemogenesis model in which fingolimod is effectively was used. […] The leukemic expansion of FL5.12/p190-Luc cells was assessed by i.p. administration of synthetic firefly luciferin (120 mg/kg) and subsequent bioluminescence imaging (see FIG. 12B-D). […]

Data set [3] can be described thus: Water solubility of FTY prodrugs. The data set is classed as physicochemical. The following applies: for water solubility: qualitative. The source says: Design and synthesis of FTY-k-PEG. Acetals (ketals) were chosen for their structural versatility, facile synthesis, and tunable cleavability under mildly acidic conditions. The endosomal pH of ˜5.0 is an excellent intracellular trigger for drug release from acid-labile drug conjugates. Initial synthetic methodology utilized 2-methoxypropene to generate methyl ketal-functionalized fingolimod (mkFTY) (see FIG. 2). […] To retain the ketal moiety while increasing solubility of the prodrug, N-Fmoc piperidone was used to generate a cyclic ketal in kFTY (7) (see FIG. 3), eliminating the hydrophobic methyl groups and incorporating a secondary amine as a functional handle for further conjugation. The ketal formation was achieved using azeotropic distillation by which constant removal of water efficiently drives the reaction to completion. […] To further increase water solubility, kFTY was conjugated to succinimidyl carboxyl methyl ester polyethylene glycol (SCM-PEG 5 k) prior to trifluoroacetamide (TFA)-deprotection to produce FTY-k-PEG (8). FTY-k-PEG was analyzed by MALDI-TOF to confirm PEGylation and TFA-deprotection (see FIG. 4). […] Other macromolecules may be used for conjugation, and a plethora of stimuli-responsive linkers may be explored to further enhance the specificity and safety of an FTY prodrug. The acid-cleavable ketal linkage can be replaced by other moieties responsive to intrinsic environmental stimuli (redox, pH, etc.), external stimuli (heat, ultrasound, photo-irradiation, electrochemical, magnetic, etc.), or specific biological processes (enzymatic cleavage, ion chelation, etc.), depending the molecular structure of a drug and the stimuli to be utilized for target indication. In addition, a variety of macromolecules can also be used in lieu of PEG, including polysaccharides (i.e., hyaluronic acids), peptides, and various synthetic polymers for improved water-solubility, extended circulation, avoided premature activation, nanoparticle formulation, theranostic applications, combating resistance, and specific targeting. […]

For data set [4], the system named is nutrient transporter associated protein 4F2hc. Briefly: Nutrient transporter expression (surface 4F2hc, flow cytometry). The data set is classed as cell-based, murine. The following applies: FL5.12 cells, 3 h treatment, compared to fingolimod. The method, then:
Cell culture. Murine IL-3-dependent proB-cell lymphoid FL5.12 cells and FL5.12/BCR-Abl p190 cells were obtained by gift. FL5.12/p190 cells were transduced to express firefly luciferase by lentiviral vectors purchased from Capital Bioscience (Gaithersberg, Md.). FL5.12/p190 and luciferase-expressing FL5.12/p190 cells (FL5.12/p190/Luc cells) were maintained at 250,000-800,000 cells/mL in RPMI 1640 media containing 10% (v/v) FBS and 1% (v/v) streptomycin-penicillin. FL5.12 cells were cultured in the same media supplemented with 5 ng/mL IL3. All cells were cultured at 37° C. with 5% CO2 and 100% humidity.
Nutrient transporter expression. Surface 4F2hc expression was measured using phycoerythrin (PE)-conjugated rat anti-mouse 4F2hc antibody (BD Pharmingen, San Diego, Calif.); analysis by flow cytomery was restricted to viable cells. PE-conjugated mouse IgG1, k (BD Pharmingen) was used as an isotype control. Cells were analyzed on a BD LSR II flow cytometer (BD Biosciences, San Jose, Calif.) and with FlowJo software (Treestar, Ashland, Oreg.).
To confirm active drug was released selectively upon acid-hydrolysis, drugs were incubated in buffers of pH 7.4 and pH 5.0 prior to incubation with the cells (see FIG. 8). Fingolimod was pre-incubated in the same buffers to rule out the possibility that the buffers would affect drug's activity or contribute to cell apoptosis. […]
(In flow cytometry, cells or beads pass a laser one at a time.)

Regarding `CCCCCCCCc1ccc(CCC(N)(CO)CO)cc1` [fingolimod, Fingolimod], the “reduction of heart rate” value in the data set with C57BL/6 mice was 50%. The compound also yielded a reduction of lymphocytes in data set [1] of roughly 60%. In addition, the epigenetic age result in data set [2] was “significant increase in epigenetic age”. For the same compound, in the data set with FL5.12/p190-Luc cells, the “average bioluminescence signal lower than that of PBS” value is reported as 64%.
For `CCCCCCCCc1ccc(CCC2(N)COC3(CCNCC3)OC2)cc1` [kFTY], in data set [3], the “concentration up to which readily soluble in water” value is no more than 10 mM and the water solubility entry was “increased water solubility compared to mkFTY”.
`CCCCCCCCc1ccc(CCC2(N)COC(C)(C)OC2)cc1` [mkFTY]: the “down-regulation of surface 4F2hc expression” value in data set [4] is recorded as “nearly identical efficacy to fingolimod”. Moreover, in data set [3], the water solubility entry is “loss of water solubility”.
